Experiments:
Wnt signaling = assay: Wnt co-culture reporter gene assay (TM3 Wnt-Luc cells with L-cell Wnt3A cells); format: cell-based, mouse
Method: Reporter gene assay: Mouse Leydig cell TM3 cells (obtained from American Type Culture Collection, ATCC, Manassas, Va.) are cultured in 1:1 mixture of Ham's F12 medium and Dulbecco's modified Eagle's medium (Gibco/Invitrogen, Carlsbad, Calif.) supplemented with 2.5% FBS (Gibco/Invitrogen, Carlsbad, Calif.) and 5% horse serum (Gibco/Invitrogen, Carlsbad, Calif.), 50 unit/mL penicillin and 50 μg/mL of streptomycin (Gibco/Invitrogen, Carlsbad, Calif.) at 37° C. with 5% CO2 in air atmosphere. TM3 cells in a 10 cm dish are co-transfected with 8 μg of STF-reporter plasmid containing a luciferase gene driven by Wnt-responsive elements and 2 μg of pcDNA3.1-Neo (Gibco/Invitrogen, Carlsbad, Calif.) with 30 μL of FuGENE6 (Roche Diagnostics, Indianapolis, Ind.) following the manufacturer's protocol. Stable cell lines (TM3 Wnt-Luc) were selected with 400 μg/mL of G418 (Gibco/Invitrogen, Carlsbad, Calif.). […]

Wnt3A secretion = assay: HA-Wnt3A secretion in transfected 293A cells; format: cell-based; details: 293A cells transfected with HA-Wnt3A, various doses; lysate HA-Wnt3A spared
Text: (§1) The secreted Wnts subsequently function on Wnt receiving cells that leads to phosphorylation of the Wnt […] LRP6. […] PORCN was reported to affect pan-Wnt post-translational palmitoylation^17-18.

LRP6 phosphorylation = assay: Wnt dependent phosphorylation of LRP6 in autocrine L-Wnt3A cells; format: cell-based, mouse
Text: as §1

[1] = system: Wnt1, 2, 3, 3A, 6, 7A, and 9A; assay: Wnt dependent STF reporter assays with a set of canonical Wnts; format: cell-based
Text: as §1

cells = assay: Cytotoxicity in cells; format: cell-based; details: up to 20 μM
Text: as §1

HNSCC cell lines = assay: Cancer cell line profiling with AXIN2 mRNA expression as readout (TaqMan); format: cell-based, human
Method: (§2) To identify human cancer cell lines that respond to porcupine inhibition, we profiled over 300 cell lines using the mRNA expression level of AXIN2 as readout. All cell lines were cultured in a humidified incubator at 37° C. with 5% CO2. HN30 cells (Wayne State University) and UMSCC cells (University of Michigan) are derived from human head neck squamous cell carcinoma (HNSCC) patient tumor samples. Total RNA or DNA was isolated using the Qiagen RNeasy and DNeasy blood and tissue kit, according to the manufacturer's instruction, respectively. Briefly, cells were disrupted by adding Buffer RLT and homogenized using QlAshredder spin columns. After one volume of 70% ethanol was added to the homogenized lysate and thoroughly mixed, the samples were transferred to RNeasy spin column. The flow-through was discarded after centrifuge. […]
(§3) For this a two-Step TaqMan RT-PCR analysis was performed on a PTC-200 peltier thermal cycler (MJ Research) and an ABI PRISM 7900HT Sequence Detection system (Applied Biosystems). […] The PCR cycle is as following: 95° C. for 10 min and 40 cycles of tandem incubation at 95° C. for 15 sec and 60° C. for 1 min. mRNA expression levels for the target genes were normalized to GAPDH mRNA levels and data were analyzed using SDS 2.0 software (Applied Biosystems) to calculate relative RNA quantities. […]

HN30 cells [2] = assay: Wnt-dependent AXIN2 message production in HN30 (TaqMan); format: cell-based; details: Homo sapiens; HN30, 48 hours
Method: as §2, §3

HN30 cells [3] = assay: HN30 colony formation assay; format: cell-based, human; details: in vitro, crystal violet one week later
Method: In order to correlate the pathway inhibition with cellular function, the human HNSCC cell line HN30 was used for further in vitro and in vivo characterization. For colony formation assay, 2×10^3 cells per well were plated into 6-well cell culture plates with or without compound treatment. Cells were stained with crystal violet one week later.

HN30 tumors [4] = assay: Mouse subcutaneous xenograft model of HNSCC HN30, anti-tumor activity; format: in vivo
Method: (§4) Nude mice bearing HN30 tumors were randomized according to tumor volume. […] Body weight was monitored daily and tumor sizes were assessed three times a week once tumors were palpable. Tumor sizes were determined by using caliper measurements. Tumor volumes were calculated with a formula (Length×Width×Height)/2. […] Blood sample (50 μL) was collected by serial retroorbital sampling at 1, 3, 7, 16 and 24 hours post-dose. The blood samples were centrifuged and plasma separated and frozen until analysis by LC/MS/MS.
Changes in tumor weight for each treated (T) and control (C) groups were measured and used to calculate growth delay as expressed by the T/C ratio. […] A similar result was obtained when dosed twice a day in this model with −44% T/C at a dose of 0.5 mg/kg twice a day.

HN30 tumors [5] = assay: Pharmacodynamic markers in HN30 mouse xenograft tumors; format: in vivo
Method: AXIN2 mRNA and pLRP6 levels (determined as in Example 3) were utilized as pharmacodynamic markers to link the observed anti-tumor activity in the HN30 mouse xenograft model. […] A time delay was observed between the peak drug concentration (at 1 hour) and the maximum AXIN2 mRNA inhibition (at 10 hours). […] This pharmacokinetic (PK), PD, and efficacy relationship explains that the sustained pathway inhibition is not required for inducing tumor regression in this HN30 xenograft model, which may provide a key differentiation factor between tumors and normal tissues to achieve a therapeutic window.
For this a two-Step TaqMan RT-PCR analysis was performed on a PTC-200 peltier thermal cycler (MJ Research) and an ABI PRISM 7900HT Sequence Detection system (Applied Biosystems). Firstly, cDNA was synthesized using a High-Capacity cDNA Archive kit (Applied Biosystems) according to the manufacturer's instructions. Briefly, the RT reaction was prepared by mixing non-enzymatic, enzymatic components of the High-Capacity cDNA Archive kit and isolated RNA samples, followed with tandem incubation at 25° C. for 10 min and 37° C. for 120 min using a thermal cycler. Secondly, TaqMan analyses were performed using TaqMan Universal Master mix (Applied Biosystems) and AXIN2 and GAPDH probes (Applied Biosystems) according to the manufacturer's instructions. Briefly, the PCR reaction was prepared by mixing Universal Master mix, TaqMan probes and synthesized cDNA samples. The PCR cycle is as following: 95° C. for 10 min and 40 cycles of tandem incubation at 95° C. for 15 sec and 60° C. for 1 min. mRNA expression levels for the target genes were normalized to GAPDH mRNA levels and data were analyzed using SDS 2.0 software (Applied Biosystems) to calculate relative RNA quantities. Curve fitting was performed using Prism.
For GeneCard analysis, 96-well TaqMan array gene card was used according to the manufacturer's instruction. The gene card assays were run on ABI 7900HT Real-Time PCR System (Applied Biosystems) and analyzed with the ΔΔCt method.

[6] = Plasma concentrations in tumor bearing nude mice; format: in vivo, mouse; details: single dose 3 mg/kg
Method: as §4

SNU1076 xenograft = SNU1076 xenograft model in mice; format: in vivo, mouse; details: 5 mg/kg
Text: DTX3L (Deltex 3-like, also called BBAP, B-lymphoma- and BAL-associated protein) heterozygous nonsense mutation was identified in the HNSCC cell line SNU1076. DTX3L is an E3 ubiquitin ligase. Its cellular function in the mammalian Notch pathway is not clear, but its Drosophila homologue Deltex is a positive regulator of Notch signaling in Drosophila. […] Loss of DTX3L may provide an alternative mechanism to inactivate the Notch signaling pathway with subsequent activation of Wnt signaling.

## Cc1cc(-c2ncc(CC(=O)Nc3ccc(-c4cnccn4)cn3)cc2C)ccn1 [COMPOUND A, 2-[5-methyl-6-(2-methylpyridin-4-yl)pyridin-3-yl]-N-[5-(pyrazin-2-yl)pyridin-2-yl]acetamide]
Wnt signaling; Mus musculus, luciferase reporter, 24 hours, read-out: IC50 of Wnt signaling inhibition in Wnt co-culture assay
  IC50: 0.4 nM
Wnt signaling; Wnt co-culture assay
  inhibitory effect after addition of exogenous Wnt3A conditioned medium: rescued
Wnt3A secretion
  abundance of HA-Wnt3A in the supernatant: potently attenuated
LRP6 phosphorylation
  Wnt dependent phosphorylation of LRP6: strongly blocked
[1]
  inhibitory activities against canonical Wnts in STF reporter assays: comparable inhibitory activities against all tested Wnts
cells
  cytotoxicity in cells: no major cytotoxicity
HNSCC cell lines; head and neck cancer cell lines
  cell lines harbouring HRAS mutations that responded: 4 of 5
HNSCC cell lines; responsive = greater than 50% AXIN2 mRNA reduction after 10-100 nM for 48 hours
  HNSCC cell lines showing pathway inhibition: 31 out of 96
HN30 cells [2]
  IC50: 0.3 nM
HN30 cells [3]
  HN30 colony formation: strongly attenuated
HN30 tumors [4]; 0.1 mg/kg once a day, oral gavage, 14 days
  T/C: 69%
HN30 tumors [4]; 0.3 mg/kg once a day, oral gavage, 14 days
  T/C: 26%
HN30 tumors [4]; 0.5 mg/kg twice a day
  T/C: −44%
HN30 tumors [4]; 1.0 mg/kg once a day, oral gavage, 14 days
  T/C: −31%
HN30 tumors [4]; 3.0 mg/kg once a day, oral gavage, 14 days
  T/C: −50%
HN30 tumors [4]; 0.1-3.0 mg/kg once a day, 14 days
  animal body weight loss: no significant animal body weight loss
HN30 tumors [5]; HN30 tumors
  time of maximum effect on pLRP6: 7-10 hours post dose
HN30 tumors [5]; HN30 xenograft
  downregulation for LEF1: 84%
  downregulation for NKD1: 67%
HN30 tumors [5]; single dose 3 mg/kg
  time of maximum AXIN2 mRNA inhibition: 10 h
HN30 tumors [5]; single dose 3 mg/kg, between 5 and 10 hours post dose
  reduction of AXIN2 mRNA expression in tumors: 60-95%
HN30 tumors [5]; time dependent, largely back to normal by 24 hours
  pLRP6 levels in the HN30 tumors: substantially reduced
[6]
  time of peak drug concentration: 1 h
SNU1076 xenograft; 14 days of treatment
  T/C: 25%
SNU1076 xenograft; SNU1076 xenograft
  reduction of AXIN2: 70%

Source: patent US10422007B2, “Markers associated with Wnt inhibitors” (Novartis AG, priority 2013, dated 2019)
